Patent US9340568B2, “Solid forms of an antiviral compound” (Gilead Pharmasset LLC, priority 2013, dated 2016)

Experiment: Dynamic vapor sorption (DVS) moisture sorption isotherm
Format: physicochemical
Conditions: relative humidity (RH) of 90%, sorption cycle 1
Experimental: DVS isotherms were generated on a Surface Measurement Systems Dynamic Vapor Sorption Advantage moisture sorption analyzer. Water adsorption and desorption were studied as a function of relative humidity over the range of 0 to 90% RH using 10% RH steps with a fixed equilibration time of 60 minutes per step.

Compound | change in mass as measured by dynamic vapor sorption (DVS)
CC(C)OC(=O)[C@H](C)N[P@](=O)(OC[C@H]1O[C@@H](n2ccc(=O)[nH]c2=O)[C@](C)(F)[C@@H]1O)Oc1ccccc1 [Compound I, Form 7, (S)-isopropyl 2-((S)-(((2R,3R,4R,5R)-5-(2,4-dioxo-3,4-dihydropyrimidin-1(2H)-yl)-4-fluoro-3-hydroxy-4-methyltetrahydrofuran-2-yl)methoxy)(phenoxy)phosphorylamino) propanoate] | about 0.15%
CC(C)OC(=O)[C@H](C)N[P@](=O)(OC[C@H]1O[C@@H](n2ccc(=O)[nH]c2=O)[C@](C)(F)[C@@H]1O)Oc1ccccc1 [Compound I, Form 8, (S)-isopropyl 2-(((S)-(((2R,3R,4R,5R)-5-(2,4-dioxo-3,4-dihydropyrimidin-1(2H)-yl)-4-fluoro-3-hydroxy-4-methyltetrahydrofuran-2-yl)methoxy)(phenoxy)phosphoryl)amino) propanoate] | about 0.17%
